# Columns and labels:
# [1] = tested on: Sprague-Dawley rats; assay: acetic acid-induced peritonitis test (antiexudative activity); type: in vivo, rat; conditions: for % inhibition: peritoneal exudate
# Method: The study was conducted on Sprague-Dawley rats, weighing between 200 and 300 gr. An evaluation was made of the capacity of the isopropyl ester of GM₁ ganglioside (hereafter known as AGF₄₄) and GM₁ itself, to inhibit the formation of peritoneal exudate following intraperitoneal injection (10 ml/kg) of a 0.5% acetic acid solution. To study administration by oral, subcutaneous and intraperitoneal routes, AGF₄₄ and GM₁ (solubilized in 10 ml/kg of sterile saline physiological solution) and a comparison compound indomethacin were administered by the individual routes one hour before the injection of acetic acid. To study topical administration, one hour before i.p. injection of acetic acid, AGF₄₄ and GM₁ in the form of 0.1% aqueous gels and the comparison 5% Artrosilene gel (ketoprofen lysine salt) were applied to the right paws with a light massage for 30 seconds to ensure complete absorption of the gel. The control groups received saline physiological solution (10 ml/kg) and placebo gel (0.2 ml/rat), respectively. 30 minutes after exudate inducement the animals were sacrificed, samples were taken of the peritoneal exudate and the percentage of inhibition of the same in relation to control values was calculated.
# [2] = tested on: male Sprague Dawley rats; assay: carrageenan-induced edema test in the paw (antiedematous activity); type: in vivo, rat; conditions: for % inhibition: paw volume increase at 3rd hour
# Method: The study was conducted on male Sprague Dawley rats, weighing about 160 ± 10 gr. An evaluation was made of the activity of the isopropyl ester of GM₁ ganglioside (AGF₄₄) and GM₁ in inhibiting the formation of edema following injection of a sterile aqueous solution of 1% carrageenan into the plantar aponeurosis of the right hand paw (0.1 ml/rat). To study administration by oral, subcutaneous and intraparitoneal routes, AGF₄₄ and GM₁ (solubilized in 10 ml/kg of sterile saline physiological solution) were compared to indomethacin as a comparison compound. For study of the oral route, each compound was administered by oral route one hour before injection of carrageenan. For study of the subcutaneous and intraperitoneal routes, each compound was administered 30 minutes before the same. To study topical administration, AGF₄₄ and GM₁ (as 0.1% aqueous gels) were compared to 5% Artrosilene gel (ketoprefene lysine salt). Each compound was applied locally to the right paw, and administration was effected twice, one hour before and immediately after injection of carrageenan, massaging lightly for 30 seconds to ensure complete absorption. The control groups received saline physiological solution (10 ml/kg) and placebo gel (0.2-0.4 ml/rat twice) respectively. Plethysmometric evaluation of the volume of the right paw was effected immediately before sub-plantar injection of carrageenan an 3 hours after the same. The antiedematous effect of the treatment was calculated by evaluating the average increase in paw volume at the 3rd hour (compared to time 0) based on control values.
# [3] = intraperitoneal, 1 mg/kg, one hour before acetic acid
# [4] = oral, 1 mg/kg, one hour before i.p. 0.5% acetic acid (10 ml/kg)
# [5] = oral, 2.5 mg/kg, one hour before acetic acid
# [6] = subcutaneous, 1 mg/kg, one hour before acetic acid
# [7] = subcutaneous, 2.5 mg/kg, one hour before acetic acid
# [8] = intraperitoneal, 1 mg/kg, 30 minutes before carrageenan
# [9] = intraperitoneal, 5 mg/kg, 30 minutes before carrageenan
# [10] = oral, 1 mg/kg, one hour before 1% carrageenan
# [11] = oral, 5 mg/kg, one hour before carrageenan
# [12] = subcutaneous, 1 mg/kg, 30 minutes before carrageenan
# [13] = subcutaneous, 5 mg/kg, 30 minutes before carrageenan
# [14] = intraperitoneal, 2.5 mg/kg, one hour before acetic acid
# [15] = topical to right paw, 0.1% gel 0.2 ml/rat, 1.4 mg/kg, one hour before acetic acid
# [16] = intraperitoneal, 2 mg/kg, 30 minutes before carrageenan
# [17] = oral, 2 mg/kg, one hour before carrageenan
# [18] = subcutaneous, 2 mg/kg, 30 minutes before carrageenan
molecule,measurement,setting,value
"COc1ccc2c(c1)c(CC(=O)O)c(C)n2C(=O)c1ccc(Cl)cc1 [Indomethacin, indomethacin, reference compound]",% inhibition,[1]; [3],70%
same,% inhibition,[1]; [4],74%
same,% inhibition,[1]; [5],90%
same,% inhibition,[1]; [6],64%
same,% inhibition,[1]; [7],84%
same,% inhibition,[2]; [8],23%
same,% inhibition,[2]; [9],67%
same,% inhibition,[2]; [10],22%
same,% inhibition,[2]; [11],67%
same,% inhibition,[2]; [12],30%
same,% inhibition,[2]; [13],60%
"GM₁ ganglioside [GM1, reference compound]",% inhibition,[1]; [3],47%
same,% inhibition,[1]; [14],51%
same,% inhibition,[1]; [4],56%
same,% inhibition,[1]; [5],63%
same,% inhibition,[1]; [6],44%
same,% inhibition,[1]; [7],52%
same,% inhibition,[1]; [15],30%
same,% inhibition,[2]; [16],20%
same,% inhibition,[2]; [9],30%
same,% inhibition,[2]; [17],20%
same,% inhibition,[2]; [11],32%
same,% inhibition,[2]; [18],19%
same,% inhibition,[2]; [13],31%
same,% inhibition,"[2]; topical, 0.1% gel 0.2 ml/rat/twice, dose in mg/kg not given",20%
isopropyl ester of GM₁ ganglioside [GM1 isopropyl ester],Peritoneal exudate inhibition,[1]; after oral administration,70-80%
same,antiexudative efficacy,[1]; at doses of less than 0.1 mg/kg (in the order of 0.1 mg/kg),efficacious
same,antiexudative activity,[1]; at doses of over 10 mg/kg,the activity decreases
same,antiexudative activity compared with indomethacin,"[1]; oral, at 1 mg/kg",comparable to that of indomethacin
same,% inhibition,[1]; [3],55%
same,% inhibition,[1]; [14],60%
same,% inhibition,"[1]; intraperitoneal, 5 mg/kg, one hour before acetic acid",64%
same,% inhibition,[1]; [4],70%
same,% inhibition,[1]; [5],72%
same,% inhibition,"[1]; oral, 5 mg/kg, one hour before acetic acid",77%
same,% inhibition,[1]; [6],47%
same,% inhibition,[1]; [7],61%
same,% inhibition,"[1]; subcutaneous, 5 mg/kg, one hour before acetic acid",70%
same,% inhibition,[1]; [15],43%
same,antiinflammatory activity,[2]; at doses of over 10 mg/kg,it diminishes at doses of over 10 mg/kg
same,Maximum efficacy (inhibition),[2]; by oral route,50-60%
same,% inhibition,[2]; [8],18%
same,% inhibition,[2]; [16],32%
same,% inhibition,[2]; [9],57%
same,% inhibition,[2]; [10],20%
same,% inhibition,[2]; [17],32%
same,% inhibition,[2]; [11],60%
same,% inhibition,[2]; [12],25%
same,% inhibition,[2]; [18],30%
same,% inhibition,[2]; [13],50%
same,% inhibition,"[2]; topical, 0.1% gel 0.2 ml/rat/twice, 1.25 x 2 mg/kg",32%
same,% inhibition,"[2]; topical, 0.1% gel 0.4 ml/rat/twice, 2.5 x 2 mg/kg",43%

# From patent EP0351784A2, “Therapeutic use of the isopropyl ester derivative of monosialoganglioside in nervous pathologies with an inflammatory component” (FIDIA S.p.A., priority 1988, dated 1990)
